We go through one substance from US20110166206A1, “UBIQUILIN REGULATION OF PRESENILIN ENDOPROTEOLYSIS, AND SUPPRESSION OF POLYGLUTAMINE-INDUCED TOXICITY IN CELLS” (UNIVERSITY OF MARYLAND BIOTECHNOLOGY INSTITUTE, priority 2005, published 2011).

In this assay the test system is endogenous PS1 NTF. In words: UBQLN overexpression in wild-type HEK293 cells, endogenous PS1 NTF immunoblot. Format: cell-based. Particulars: normal HEK293 cells. The protocol: (C) Endogenous PS fragment levels were analyzed in HEK293 cells that were transfected with increasing amounts of UBQLN1 or UBQLN2 expression plasmids. Equivalent amounts of protein lysates were separated by 10% SDS-PAGE and immunoblotted with anti-PS1 NTF antibody. The filter was then reprobed with anti-ubiquilin antibody to ensure overexpression of UBQLN and with an anti-actin antibody to ensure equal protein loading. Overexpression of UBQLN decreases PS1 NTF levels and the extent of reduction was quantified again by densitometric analysis. Graph is quantification of untransfected and […] UBQLN cDNA plasmid transfected lanes.
Preparation of protein lysates, SDS-PAGE and immunoblotting of proteins were described previously. Primary antibodies used were rabbit anti-PS2 loop and rabbit anti-PS2 NH,-terminus, both raised to GST-PS2 fusion proteins; rabbit anti-ubiquilin [43] which reacts with UBQLN1 and UBQLN2 polypeptides; rat anti-PS1 NH2,-terminus (Chemicon International, Temecula, Calif.); rabbit anti-PS1 loop raised to GST-PS1 fusion proteins; goat anti-p27 and goat anti-actin (Santa Cruz Biotechnology, Santa Cruz, Calif.); mouse monoclonal anti-tubulin (Sigma-Aldrich, St. Louis, Mo.); rabbit anti-nicastrin (Abeam, Cambridge, Mass.), rabbit anti-Pen-2 (Zymed, San Francisco, Calif.); and rabbit anti-Aph-la (Covance, Berkeley, Calif.). […]
On the technique in general: Immunoblotting shows a protein as a band on a membrane.

As for “UBQLN1: PS-interacting protein ubiquilin-1, overexpressed in cells from a cDNA expression plasmid”, the “reduction of endogenous PS1 NTF levels” value is “approximately 1.7 fold”.
